Earlier results, collected in patent US6503920B1, “Cabergoline and pramipexole: new uses and combinations” (Pharmacia & Upjohn Company, priority 1998, dated 2003).

How the values were obtained:
[1] = tested on: PSP patients
[2] = tested on: PSP patients; conditions: 750-1500 mg per day
[3] = tested on: PSP patients; conditions: 120 mg/day, 2-week open label, two patients
[4] = tested on: PSP patients; conditions: 10 patients, double blind crossover
[5] = tested on: PSP patients; conditions: controlled trial of 7 subjects
[6] = tested on: PSP patients; conditions: controlled trial

N[C@@H](Cc1ccc(O)c(O)c1)C(=O)O [L-dopa]
most common side effects reported [1]: development of hallucinations | patients showing no effect [2]: 44% | response rate showing mild to moderate improvement on the basis of clinical impressions [2]: 54%

c1ccc2c(c1)OCC(C1=NCCN1)O2 (stereo not drawn) [Idazoxan]
marginal improvement [3]: 12-34% | side effects [3]: sympathetic side effects were common

CCN1C(=O)CC2(CCN(C)CC2)C1=O [RS-86]
motor or cognitive changes [4]: no consistent motor or cognitive changes

CCN(CC)C(=O)N[C@H]1C=C2c3cccc4[nH]cc(c34)C[C@H]2N(C)C1 [Lisuride]
overall result of the trial [5]: not any significant results | patients with mild improvement [5]: two patients had a mild improvement

CCCN1C[C@H](CSC)C[C@@H]2c3cccc4[nH]cc(c34)C[C@H]21 [Pergoline]
subjects with mild antiparkinsonian effects [6]: 2/3
